In patent US11415579B2, “Assay for measuring a rate of reaction between a target and a ligand candidate” (Imperial College Innovations Ltd., priority 2016, dated 2022):

Tests used:
[1] = molecular target: T1, Cdk2[C177A, F80C, K278C] (Homo sapiens, UniProt P24941, C177A/F80C/K278C); test: Kinetic thiol consumption assay with mutant Cdk2 as model thiol; format: binding; design: unit not given here; details: 500 μM ligand, 5 μM thiol, phosphate buffer pH 8
T1 construct: poly-histidine; made in house; host or cells: E. coli
In short: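 First-order rate constants were derived by exponential-decay fitting of DMSO/thiol-normalized fluorescence (380/470 nm) over time at room temperature. Thiol was 5 μM E. coli-expressed His-tagged Cdk2 mutant C177A/F80C/K278C in degassed pH 8 phosphate buffer containing 2% v/v TCEP beads.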

[2] = molecular target: T2, human cyclin-dependent kinase 2 (Cdk2) (Homo sapiens, UniProt P24941); test: Kinetic thiol consumption assay with wild type Cdk2 (C177); format: binding; design: key to Rate enhancement, Cdk2 WT: k(Cdk2) divided by k(model thiol); Rate constant with Cdk2 (k(Cdk2)): unit not given here; details: for Rate constant with Cdk2 (k(Cdk2)): 500 μM ligand, 5 μM thiol, phosphate buffer pH 8; for Rate enhancement, Cdk2 WT: no additional mutations; for Rate constant with Cdk2 WT: Protein: Cdk2, cysteine position WT, in h^-1; for k(Cdk2)/k(Cdk2_mut) rate enhancement: model thiol Cdk2[C177A, F80C, K278C]; for k(Cdk2)/k(GSH) rate enhancement: model thiol glutathione
T2 construct: poly-histidine; made in house; host or cells: E. coli
In short: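 Rate constants came from first-order exponential decay fits of normalized fluorescence against time, with thiol (5 μM) in degassed pH 8 phosphate buffer containing 2% v/v TCEP beads and reads after 1 h at room temperature.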

[3] = molecular target: T3, Cdk2(C177A, F80C) (Homo sapiens, UniProt P24941, C177A/F80C); test: Kinetic thiol consumption assay with Cdk2 mutant F80C, incl. kobs versus concentration (Kd, k2); format: binding; design: key to Rate enhancement, Cdk2 F80C: Cdk2 rate constant divided by model-thiol rate constant; details: additional mutation C177A; for Rate constant with Cdk2 F80C: Protein: Cdk2, cysteine position F80C, in h^-1
T3 construct: poly-histidine; made in house; host or cells: E. coli
In short: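 His-tagged Cdk2(C177A/F80C) from E. coli or model thiol, 5 μM in degassed phosphate buffer pH 8 with TCEP beads, reacted with acrylamide ligands; fluorescence (ex/em 380/470 nm) normalized to DMSO control and fitted to first-order decay for kobs. Kd and k2 obtained from hyperbolic fit of kobs versus ligand concentration.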

[4] = molecular target: T4, Cdk2(S181C) (C177A) (Homo sapiens, UniProt P24941, C177A/S181C); test: Kinetic thiol consumption assay with Cdk2 mutant S181C; format: binding; design: key to Rate enhancement, Cdk2 S181C: rate constant with Cdk2 ÷ rate constant with model thiol (fold); details: additional mutation C177A; for Rate constant with Cdk2 S181C: Protein: Cdk2, cysteine position S181C, in h^-1
T4 construct: poly-histidine; made in house; host or cells: E. coli
In short: (§1)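 Thiol consumption was monitored kinetically using 5 μM Cdk2 (C177A plus one introduced cysteine) in degassed phosphate buffer at pH 8 with TCEP beads. Plates were kept 1 h at room temperature before fluorescence reading, and rate constants came from exponential decay fitting.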

[5] = molecular target: T5, Cdk2(S276C) (C177A) (Homo sapiens, UniProt P24941, C177A/S276C); test: Kinetic thiol consumption assay with Cdk2 mutant S276C; format: binding; design: key to Rate enhancement, Cdk2 S276C: rate constant with Cdk2 ÷ rate constant with model thiol (fold); details: additional mutation C177A; for Rate constant with Cdk2 S276C: Protein: Cdk2, cysteine position S276C, in h^-1
T5 construct: poly-histidine; made in house; host or cells: E. coli
In short: as §1

[6] = molecular target: T6, Cdk2(H71C) (C177A) (Homo sapiens, UniProt P24941, C177A/H71C); test: Kinetic thiol consumption assay with Cdk2 mutant H71C; format: binding; design: key to Rate enhancement, Cdk2 H71C: rate constant with Cdk2 ÷ rate constant with model thiol (fold); details: additional mutation C177A
T6 construct: poly-histidine; made in house; host or cells: E. coli
In short: as §1

[7] = molecular target: T7, Cdk2(T182C) (C177A) (Homo sapiens, UniProt P24941, C177A/T182C); test: Kinetic thiol consumption assay with Cdk2 mutant T182C; format: binding; design: key to Rate enhancement, Cdk2 T182C: rate constant with Cdk2 ÷ rate constant with model thiol (fold); details: additional mutation C177A; for Rate constant with Cdk2 T182C: Protein: Cdk2, cysteine position T182C, in h^-1
T7 construct: poly-histidine; made in house; host or cells: E. coli
In short: as §1

[8] = Kinetic thiol consumption assay with model thiol glutathione; format: physicochemical; design: Rate constant with glutathione (k(GSH)): unit not given here; details: for Rate constant with glutathione (k(GSH)): 500 μM ligand, 5 μM thiol, phosphate buffer pH 8; for Rate constant with Glutathione: Protein: Glutathione, cysteine position NA, in h-1
In short: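 Rate constants for acrylamide reaction with 5 μM glutathione come from first-order exponential fits of normalized fluorescence decay (ex 380, em 470 nm). Reactions run in degassed phosphate buffer at pH 8 containing TCEP beads, room temperature.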

[9] = molecular target: T8, Cdk2(N272C) (C177A) (Homo sapiens, UniProt P24941, C177A/N272C); test: Kinetic thiol consumption assay with Cdk2 mutant N272C; format: binding; design: key to Rate enhancement, Cdk2 N272: rate constant with Cdk2 ÷ rate constant with model thiol (fold); details: for Rate enhancement, Cdk2 N272: Cdk2 N272, additional mutation C177A; for Rate constant with Cdk2 N272C: Protein: Cdk2, cysteine position N272C, additional mutation C177A, in h^-1
T8 construct: poly-histidine; made in house; host or cells: E. coli
In short: as §1

[10] = molecular target: T9, Cdk2(R122C) (C177A) (Homo sapiens, UniProt P24941, C177A/R122C); test: Kinetic thiol consumption assay with Cdk2 mutant R122C; format: binding; design: key to Rate enhancement, Cdk2 R122C: rate constant with Cdk2 ÷ rate constant with model thiol (fold); details: additional mutation C177A; for Rate constant with Cdk2 R122C: Protein: Cdk2, cysteine position R122C, in h-1
T9 construct: poly-histidine; made in house; host or cells: E. coli
In short: as §1

| Structure (SMILES) | Rate constant with Cdk2[C177A, F80C, K278C] (k(Cdk2_mut)) [1] | Rate constant with Cdk2 (k(Cdk2)) [2] | Rate enhancement, Cdk2 WT [2] | Rate constant with Cdk2 WT [2] | k(Cdk2)/k(Cdk2_mut) rate enhancement [2] | k(Cdk2)/k(GSH) rate enhancement [2] | Rate constant with Cdk2 F80C [3] | Rate enhancement, Cdk2 S181C [4] | Rate constant with Cdk2 S181C [4] | Rate enhancement, Cdk2 S276C [5] | Rate constant with Cdk2 S276C [5] | Rate enhancement, Cdk2 H71C [6] | Rate enhancement, Cdk2 T182C [7] | Rate constant with Cdk2 T182C [7] | Rate constant with glutathione (k(GSH)) [8] | Rate constant with Glutathione [8] | Rate enhancement, Cdk2 N272 [9] | Rate constant with Cdk2 N272C [9] | Rate enhancement, Cdk2 R122C [10] | Rate constant with Cdk2 R122C [10] | further results |
| --- | --- | --- | --- | --- | --- | --- | --- | --- | --- | --- | --- | --- | --- | --- | --- | --- | --- | --- | --- | --- | --- |
| C=CC(=O)NCCCN(C(=O)C1CCC1)C1CC1 [CA-060] | 0.00223 | 0.00226 | 0.7143 | 0.00367 | 1.013 | 0.7988 | ~0.0004944 | 0.7812 | 0.004014 | 1.112 | 0.005711 | 0 | 1.619 | 0.00832 | 0.00283 | 0.005138 | 3.677 | 0.01889 | 0.4675 | 0.002402 | – |
| C=CC(=O)Nc1ccc(C23CC4CC(CC(O)(C4)C2)C3)cc1 [CA-194] | 0.01393 | 0.00505 | 1.123 | 0.005049 | 0.3625 | 1.651 | 0.004454 | 0.6985 | 0.003139 | 0.7641 | 0.003434 | 0 | 10.72 | 0.04819 | 0.00306 | 0.004494 | 0.2125 | 0.0009551 | 0.7287 | 0.003275 | Rate enhancement, Cdk2 F80C [3]: 0.9911 |
| C=CC(=O)N1CC2CC2C1 (stereo not drawn) [CA-211] | 0.00172 | 0.00368 | 0.3928 | 0.003681 | 2.144 | 0.6839 | 0.002339 | 2.498 | 0.02341 | 0.4691 | 0.004395 | 0 | 2.18 | 0.02043 | 0.00538 | 0.00937 | 2.443 | 0.02289 | 0.3837 | 0.003595 | Rate enhancement, Cdk2 F80C [3]: 0.2496 |
| C=CC(=O)NCCc1c(-c2ccccn2)[nH]c2ccc(F)cc12 [EL-1084] | 0.00599 | 0.00314 | 1.173 | 0.005012 | 0.5247 | 1.101 | 7.515E−14 | 0.09078 | 0.0003879 | 0.4117 | 0.001759 | 0 | 1.828 | 0.007812 | 0.00286 | 0.004273 | 0.608 | 0.002598 | 0.229 | 0.0009787 | Rate enhancement, Cdk2 F80C [3]: 1.7587E−11 |
| C=CC(=O)N1CC2(CCC2)c2c(F)cccc21 [CA-188] | 1.161 | 0.55 | 2.768 | 0.55 | 0.4737 | 2.89 | 0.5106 | 0.2482 | 0.04931 | 0.03818 | 0.007587 | 1.537 | 1.883 | 0.3741 | 0.1903 | 0.1987 | 0.3173 | 0.06304 | 0.08933 | 0.01775 | Rate enhancement, Cdk2 F80C [3]: 2.57; Rate constant with Cdk2 H71C ([6]; Protein: Cdk2, cysteine position H71C, in h^-1): 0.3055 |
